# Source: patent US9200269B2, “β-glucuronidase inhibitor” (priority 2007, dated 2015)
# Experiments:
# β-glucuronidase = target: T1, β-glucuronidase (Escherichia coli, UniProt P05804); assay: Suppression of production of volatile compound from urine with added β-glucuronidase (GC-MS); assay type: biochemical; settings: 0.01 wt %; human urine plus enzyme, 25° C., 22 hours
# T1 construct: purchased Sigma-Aldrich Corporation
# Method: 9.9 mL of a human urine sample (a mixture of urine from five humans), from which microorganisms were filtered with a 0.2-μm filter (Millex GV manufactured by Millipore Corporation) were added to a bottle which had been preliminarily subjected to γ-ray sterilization immediately after the collection, and subsequently 0.1 mL of an Escherichia coli-derived β-glucuronidase Type VII-A (purchased from Sigma-Aldrich Corporation) aqueous solution adjusted to 250 units/mL was added and mixed. The mixture was incubated in a thermostat bath at 25° C. and allowed to react for 22 hours. An initial urine sample prepared by adding 0.1 mL of sterilized ion exchanged water as substitution of the enzyme solution, was similarly incubated in a thermostat bath for 22 hours.
# 9.9 mL of a human urine sample (a mixture of urine from five humans) which had been subjected to a microbe-removing operation with a 0.2-μm filter immediately after the collection and 10 μL of a 10 wt % 8-cyclohexadecen-1-one DPG solution were added to a bottle γ-ray sterilized in advance, and subsequently 0.1 mL of a […] aqueous solution adjusted to 250 units/mL was added and mixed. The mixture was incubated in a thermostat bath at 25° C. and allowed to react for 22 hours. The concentration of 8-cyclohexadecen-1-one in the reaction solution was 0.01 wt %. Further, a product prepared by adding 0.1 mL of an enzyme solution to 9.9 mL of the microbe-removed urine sample was used as a control, a product prepared by adding 0.1 mL of ion exchanged water to 9.9 mL of the microbe-removed urine sample was used as a blank, and the respective products were allowed to react for 22 hours in the same manner.
# After the completion of the reaction, to 9 mL of the reaction solution, a benzyl benzoate ethanol solution was added as an internal standard. The mixture was extracted twice with 10 mL of diethyl ether. The extracted solutions were combined and dried over anhydrous magnesium sulfate. After drying, a solid was separated by filtration, and the filtrate was concentrated with a rotary evaporator to prepare a sample for measurement.
# Measurement was performed with a gas chromatograph mass spectrometer. The production amount of the volatile compound detected was calculated as a peak area ratio with respect to an internal standard. The production suppression rate for each of volatile components was determined by using the obtained value in accordance with the following equation. Production amount of control=Peak area ratio of control—Peak area ratio of blank Production amount of sample=Peak area ratio of sample−Peak area ratio of blank Production suppression rate (%)=[(Production amount of control −Production amount of sample)/Production amount of control]×100
# [1] = Urine catching pad urine addition test, urine odor intensity; design: species or system human; settings: 30° C.
# Method: Sensory evaluation of odor was performed by six panelists, the evaluation was based on a six-level odor intensity indication method in which the odor intensity was indicated with an evaluation score of 0 to 5. In the evaluation score, “0” indicates no odor, “1” indicates odor which can be slightly perceived (detection threshold), “2” indicates odor which can be perceived to be urine odor but is weak (perception threshold), “3” indicates odor which can be easily perceived to be urine odor, “4” indicates strong urine odor, and “5” indicates extreme urine odor. The odor intensity was determined at an interval of 0.5.
# Specifically, the urine catching pad was prepared by replacing only a water-absorbent polymer in the commercially available urine catching pad “Relief urine catching pad safe absorption (Anshin-Kyusyu)” (manufactured by Kao Corporation) with a water-absorbent polymer wherein the β-glucuronidase inhibitor of the present invention was added. The added amount of the inhibitor to the water-absorbent polymer was 1 wt. % with respect to the water-absorbent polymer, and was equivalent to 1.5 g/m^2 with respect to the urine catching pad.
# A urine addition test was performed by using test pieces having dimensions of 19 cm by 7 cm being cut out from the urine catching pad, and using a test piece containing no β-glucuronidase inhibitor as a blank. The test was performed as follows: 30 g of human urine (a mixture of urine from five humans) were added to these test pieces cut out from the urine catching pad, and the urine odor intensity after 1 hour, after 24 hours, and after 48 hours under preservation at 30° C. was evaluated by five panelists based on the six-level odor intensity indication method as described in the item (2) of Reference Example 2.
# [2] = six-level score 0 to 5, average of five panelists, inhibitor 1 wt. % of water-absorbent polymer, 30 g human urine
# T1 sequence (P05804 whole entry): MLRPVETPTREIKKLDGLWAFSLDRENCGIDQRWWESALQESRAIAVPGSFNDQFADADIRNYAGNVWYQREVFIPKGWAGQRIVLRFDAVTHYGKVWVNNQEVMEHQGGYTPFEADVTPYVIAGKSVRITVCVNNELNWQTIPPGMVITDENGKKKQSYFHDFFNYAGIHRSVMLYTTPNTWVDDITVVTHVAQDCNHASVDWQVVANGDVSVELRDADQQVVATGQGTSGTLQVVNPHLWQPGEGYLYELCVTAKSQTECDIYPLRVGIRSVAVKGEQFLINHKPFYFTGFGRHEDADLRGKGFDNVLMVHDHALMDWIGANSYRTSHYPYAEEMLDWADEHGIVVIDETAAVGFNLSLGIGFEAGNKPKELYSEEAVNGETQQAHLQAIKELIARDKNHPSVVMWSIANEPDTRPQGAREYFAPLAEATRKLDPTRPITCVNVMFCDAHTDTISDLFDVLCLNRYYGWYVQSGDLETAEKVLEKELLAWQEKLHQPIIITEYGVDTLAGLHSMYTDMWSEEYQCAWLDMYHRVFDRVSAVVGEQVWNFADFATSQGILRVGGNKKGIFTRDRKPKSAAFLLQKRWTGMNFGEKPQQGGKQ
smiles,measurement,setting,value
"O=C1CCCCCCC=CCCCCCCC1 [8-Cyclohexadecen-1-one, 8-cyclohexadecen-1-one]",Production of phenol-based compounds and indole from urine (result in words),β-glucuronidase,suppressed the production of all of phenol-based compounds and indole
same,"Production suppression rate (%) of 1,3-Benzenediol",β-glucuronidase,100%
same,"Production suppression rate (%) of 1,4-Benzenediol",β-glucuronidase,73%
same,"Production suppression rate (%) of 2-Methoxy-1,3-benzenediol",β-glucuronidase,73%
same,Production suppression rate (%) of 4-Vinyl-2-methoxyphenol,β-glucuronidase,55%
same,Production suppression rate (%) of 4-Vinylphenol,β-glucuronidase,57%
same,Production suppression rate (%) of Indole,β-glucuronidase,57%
same,Production suppression rate (%) of Phenol,β-glucuronidase,70%
same,Production suppression rate (%) of p-Cresol,β-glucuronidase,63%
same,Suppression of the increase of urine odor in urine catching pad compared to the blank (result in words),[1]; after 24 or 48 hours as stated,"even after 48 hours, was confirmed"
same,Urine odor intensity After 1 hour,[1]; [2],1.3
same,Urine odor intensity After 24 hours,[1]; [2],1.5
same,Urine odor intensity After 48 hours,[1]; [2],1.9
